In ChEMBL document CHEMBL3286240, “Inhibition of Enterococcus faecalis biofilm formation by highly active lactones and lactams analogues of rubrolides” (Eur J Med Chem, 2014):
Values after ≈ are worked out from the molar mass of the structure shown.

Experiments:
[1] = tested on: Enterococcus faecalis; experiment: Antimicrobial activity against Enterococcus faecalis assessed as bacterial growth at 87.5 ug/ml after 20 hrs by microtiter plate assay; type: functional
[2] = tested on: Enterococcus faecalis; experiment: Antimicrobial activity against Enterococcus faecalis assessed as bacterial growth at 43.8 ug/ml after 20 hrs by microtiter plate assay; type: functional
[3] = tested on: Enterococcus faecalis; experiment: Antimicrobial activity against Enterococcus faecalis assessed as bacterial growth at 21.9 ug/ml after 20 hrs by microtiter plate assay; type: functional
[4] = tested on: Enterococcus faecalis; experiment: Antimicrobial activity against Enterococcus faecalis assessed as bacterial growth at 10.9 ug/ml after 20 hrs by microtiter plate assay; type: functional
[5] = tested on: Enterococcus faecalis; experiment: Antimicrobial activity against Enterococcus faecalis assessed as bacterial growth at 5.5 ug/ml after 20 hrs by microtiter plate assay; type: functional
[6] = tested on: Enterococcus faecalis; experiment: Antimicrobial activity against Enterococcus faecalis assessed as bacterial growth at 2.73 ug/ml after 20 hrs by microtiter plate assay; type: functional
[7] = tested on: Enterococcus faecalis; experiment: Antimicrobial activity against Enterococcus faecalis assessed as bacterial growth at 1.37 ug/ml after 20 hrs by microtiter plate assay; type: functional
[8] = tested on: Enterococcus faecalis; experiment: Antimicrobial activity against Enterococcus faecalis assessed as bacterial growth at 0.68 ug/ml after 20 hrs by microtiter plate assay; type: functional
[9] = tested on: Enterococcus faecalis; experiment: Antimicrobial activity against Enterococcus faecalis assessed as bacterial growth at 0.34 ug/ml after 20 hrs by microtiter plate assay; type: functional
[10] = tested on: Enterococcus faecalis; experiment: Antimicrobial activity against Enterococcus faecalis assessed as bacterial growth at 0.17 ug/ml after 20 hrs by microtiter plate assay; type: functional
[11] = tested on: Enterococcus faecalis; experiment: Antimicrobial activity against Enterococcus faecalis assessed as inhibition of biofilm formation after 20 hrs by crystal violet staining analysis; type: functional, organism-based

| SMILES | Activity [1] | Activity [2] | Activity [3] | Activity [4] | Activity [5] | Activity [6] | Activity [7] | Activity [8] | Activity [9] | Activity [10] | IC50 [11] |
| --- | --- | --- | --- | --- | --- | --- | --- | --- | --- | --- | --- |
| COc1ccccc1C1=C(Br)C(=O)O/C1=C\c1ccc(C(F)(F)F)cc1 | 66.5% | 46.3% | 26% | 15.2% | 7.1% | -4.8% | -7.6% | -9.1% | -6.7% | -4.5% | – |
| COc1ccc(Br)cc1C1=C(Br)C(=O)O/C1=C\c1cccc(Cl)c1 | 72.1% | 38.8% | 34.8% | 18.4% | 14.9% | 16% | 14.4% | 4.8% | 0.8% | 7.2% | 6.91 µg/mL (≈ 14.7 µM) |
| COc1ccc(Br)cc1C1=C(Br)C(=O)O/C1=C\c1ccc(Br)cc1 | 35.9% | 22.3% | 9.6% | 19.9% | 9.6% | 1.1% | 8.8% | 10.4% | -0.3% | 0.8% | 18.7 µg/mL (≈ 36.3 µM) |
| COc1ccc(C)cc1C1=C(Br)C(=O)O/C1=C\c1cccc(Cl)c1 | 55.8% | 39.6% | 19.4% | 17.7% | 17.4% | 9.8% | 9.1% | -4.7% | -7.9% | -6.4% | 1.51 µg/mL (≈ 3.72 µM) |
| COc1ccc(C)cc1C1=C(Br)C(=O)O/C1=C\c1ccccc1Cl | 63.8% | 28.8% | 18.2% | 5.1% | 19.1% | 19.9% | 27.1% | 33.9% | 29.9% | 21% | – |
| COc1ccc(Cl)cc1C1=C(Br)C(=O)O/C1=C\c1ccccc1Br | 68.7% | 47% | 47.5% | 33.2% | 36.3% | 23.8% | -0.8% | -3.4% | -4.7% | 0.8% | > 87.5 µg/mL |
| COc1cccc(/C=C2\OC(=O)C(Br)=C2c2cc(Cl)ccc2OC)c1 | 40.5% | 24.1% | 19.7% | 9.2% | 9.7% | 11.8% | 0.3% | -5.6% | -4.1% | -1.5% | 53.1 µg/mL (≈ 126 µM) |
| COc1ccccc1C1=C(Br)C(=O)N(CC(C)C)C1(O)Cc1ccc(C(F)(F)F)cc1 (stereo not given) | -24.6% | -1.2% | -7% | 22.7% | 18.1% | 8.4% | 3.4% | 11.3% | 1.7% | 1.9% | – |
| COc1ccc(Br)cc1C1=C(Br)C(=O)N(CC(C)C)C1(O)Cc1cccc(Cl)c1 (stereo not given) | 48.7% | 30.3% | 9.3% | 6.5% | -2.1% | -4.4% | 1.3% | -0.8% | -4.7% | 1.3% | > 87.5 µg/mL |
| COc1ccc(Br)cc1C1=C(Br)C(=O)N(CC(C)C)C1(O)Cc1ccc(Br)cc1 (stereo not given) | 42.4% | 28.1% | 15.8% | 10.4% | 8.4% | 8.9% | 3.2% | 6.3% | 10% | -8% | 33.4 µg/mL (≈ 56.8 µM) |
| COc1ccc(C)cc1C1=C(Br)C(=O)N(CC(C)C)C1(O)Cc1cccc(Cl)c1 (stereo not given) | 53.1% | 36.8% | 24.9% | 5.8% | 4.2% | 4.8% | 2.1% | 3.3% | 0.7% | -2.5% | > 87.5 µg/mL |
| COc1ccc(C)cc1C1=C(Br)C(=O)N(CC(C)C)C1(O)Cc1ccccc1Cl (stereo not given) | 86.4% | 63.4% | 46% | 43.8% | 41.6% | 35.4% | 19.1% | -12.4% | -15.6% | -3.7% | 1.07 µg/mL (≈ 2.23 µM) |
| COc1ccc(Cl)cc1C1=C(Br)C(=O)N(CC(C)C)C1(O)Cc1ccccc1Br (stereo not given) | 78% | 53.9% | 38.4% | 36.7% | 32.4% | 30.2% | 19.3% | -10.6% | -1.9% | -5.1% | 1.29 µg/mL (≈ 2.37 µM) |
| COc1cccc(CC2(O)C(c3cc(Cl)ccc3OC)=C(Br)C(=O)N2CC(C)C)c1 (stereo not given) | 60.6% | 38.2% | 21.6% | 19.8% | -8% | 9.5% | 3% | 4% | 1% | -4% | > 87.5 µg/mL |
| COc1ccccc1C1=C(Br)C(=O)N(CC(C)C)/C1=C\c1ccc(C(F)(F)F)cc1 | 45% | 11.2% | 4% | -4.2% | -8% | -6.6% | -5.2% | -10.2% | -10.4% | -2.4% | 12 µg/mL (≈ 25 µM) |
| COc1ccc(Br)cc1C1=C(Br)C(=O)N(CC(C)C)/C1=C\c1cccc(Cl)c1 | 94.2% | 26.3% | 20.4% | 20% | 21.8% | 27% | 25.1% | 17.9% | 12.1% | 9.3% | 3.31 µg/mL (≈ 6.3 µM) |
| COc1ccc(Br)cc1C1=C(Br)C(=O)N(CC(C)C)/C1=C\c1ccc(Br)cc1 | 82.8% | 59.7% | 58.1% | 55.9% | 43% | 33.9% | 17.5% | -1.3% | 0.3% | -2.2% | 6.62 µg/mL (≈ 11.6 µM) |
| COc1ccc(C)cc1C1=C(Br)C(=O)N(CC(C)C)/C1=C\c1cccc(Cl)c1 | 64.5% | 61.8% | 46.8% | 34.4% | 31.1% | 14.5% | 11.9% | 11.6% | 6.9% | 6% | 62.6 µg/mL (≈ 136 µM) |
| COc1ccc(C)cc1C1=C(Br)C(=O)N(CC(C)C)/C1=C\c1ccccc1Cl | 95.3% | 62.1% | 52.2% | 45.1% | 41.9% | 33% | 24.6% | 6.9% | -7.4% | -4.2% | 1.09 µg/mL (≈ 2.37 µM) |
| COc1ccc(Cl)cc1C1=C(Br)C(=O)N(CC(C)C)/C1=C\c1ccccc1Br | 100.8% | 70% | 61.5% | 53.3% | 35.1% | 44.9% | 45.1% | 19.2% | 0% | -4.1% | 1.48 µg/mL (≈ 2.82 µM) |
| COc1cccc(/C=C2/C(c3cc(Cl)ccc3OC)=C(Br)C(=O)N2CC(C)C)c1 | 94.6% | 55.6% | 45.7% | 39.3% | 42.5% | 29.1% | 21% | 5.9% | 2.5% | 0.2% | 1.46 µg/mL (≈ 3.06 µM) |
| COc1ccccc1C1=C(Br)C(=O)N(CC(C)C)/C1=C/c1ccc(C(F)(F)F)cc1 | -18.9% | 17.5% | 15.8% | 11.1% | 9.2% | 10.9% | 1.6% | 2.3% | 0.4% | 3.3% | 2.96 µg/mL (≈ 6.16 µM) |
| COc1ccc(Br)cc1C1=C(Br)C(=O)N(CC(C)C)/C1=C/c1cccc(Cl)c1 | 98.2% | 75.5% | 67.3% | 57.3% | 48.8% | 42.5% | 33% | 23.5% | 20.1% | 16.1% | 3.46 µg/mL (≈ 6.58 µM) |
